# Test results published in EP3895702B1, “DERIVATIVE OF VALPROIC ACID AND DICHLOROACETATE USED FOR THE TREATMENT OF CANCER” (Lietuvos sveikatos mokslu universitetas, priority 2020, dated 2021).
# Assays:
# [1] = tested on: glioblastoma U87 MG tumors; test: Invasion of glioblastoma tumor graft into chicken embryo chorioallantoic membrane (CAM) mesenchyme; assay type: in vivo; details: control 90.9%
# Description: Synergistic effect of VPA and DCA on glioblastoma tumor (GB) graft on chicken embryo chorioallantoic membrane (CAM). […] Invasion into the CAM mesenchyme was detected in 50% of cases with 10 mM NaDCA treatment of GB (A-b and B). […] The incidence of invasion into the CAM mesenchyme was 9.1% in the group treated with the combination of 4 mM VPA and 5 mM DCA (A-c and B).
# A - morphological changes of the chorioallantoic membrane in the groups studied: a - tumor formed from glioblastoma U87 MG cells; GB injured the integrity of the chorionic epithelium (ChE) (indicated by arrows) and invaded the CAM mesenchyme; b - GB treated with 10 mM NaDCA; no invasion of the CAM mesenchyme was detected, ChE injury already started (location marked with an arrow); c - GB treated with a combination of 4 mM VPA and 5 mM DCA; GB formed on the CAM surface, ChE integrity damaged (location marked with an arrow), CAM thinned (scale - 200 µm). […] C - fluorescence biomicroscopy of angiogenesis on the 5th day after tumor transplantation on CAM: a - untreated GB tumors, b - GB-4 mM VPA-5 mM DCA group; VPA-DCA treated tumor fluorescence is weaker compared to the control group tumor; a and b-a short arrow indicates the blood vessels attracted by the tumor, long arrow indicates a tumor (scale - 1 mm).
# [2] = aqueous solution; cited from earlier work
compound,measurement,setting,value
"O=C([O-])C(Cl)Cl.[Na+] [NaDCA, Sodium dichloroacetate]",Invasion into the CAM mesenchyme (cases),"[1]; 10 mM NaDCA, n = 14",50%
"CCCC(CCC)C(=O)O [valproic acid, 2-propyl-pentanoic acid]",ionization equilibrium constant Kr,[2],2.2·10^-5
Magnesium dichloroacetate [MgDCA],Invasion rate,"[1]; 5 mM MgDCA, n = 7",14.3%
